Results on five molecules are retold here after DBAASP.

Some test systems named below: Staphylococcus aureus; Pseudomonas aeruginosa 9; Aspergillus fumigatus; Pasteurella multocida; Bibersteinia trehalosi; Klebsiella pneumoniae.
Common to all, as to test: ≥ marks a high value that may be exact or a test limit, other limits are often not marked, values filed in µg/mL are converted to µM
Test [1] has as its system Pseudomonas aeruginosa ATCC 9027.
Test [2] concerns Micrococcus luteus ATCC 9341.
In test [3] the test system is Bacillus subtilis ATCC 6633.
Test [4] concerns Staphylococcus epidermidis ATCC 12228.
For test [5], the system named is Escherichia coli ATCC 2592.
The subject of test [6] is Staphylococcus aureus ATCC 6538.
For test [7], the system named is Candida albicans ATCC 36232.
The subject of test [8] is Shigella flexneri ATCC 203.
Test [9] has as its system Corynebacterium diphtheriae ATCC 8024.
For test [10], the system named is Stenotrophomonas maltophilia ATCC 13637.
Test [11] concerns Pseudomonas aeruginosa H1027.
Test [12] deals with Pseudomonas aeruginosa LES400.
Test [13] concerns Enterococcus faecalis ATCC 29212.
Test [14] deals with Enterococcus faecalis f43559.
Test [15] relates to Staphylococcus aureus C623.
Test [16] concerns Enterococcus faecium t62764.
The test system of test [17] is Pseudomonas aeruginosa PAO1 H103.
Test [18] deals with Klebsiella pneumoniae ESBL 63575.
Test [19] deals with Pseudomonas aeruginosa 198.
The test system of test [20] is Klebsiella pneumoniae ESBL 61962.
Test [21] deals with Pseudomonas aeruginosa 213.
Test [22] deals with Staphylococcus aureus ATCC 25923.
Test [23] deals with Enterococcus faecium mic80.
In test [24] the test system is Escherichia coli ESBL 63103.
Test [25] deals with Enterobacter cloacae 218R.
For test [26], the system named is Escherichia coli ESBL 64771.
The subject of test [27] is Pseudomonas aeruginosa H1030.
Test [28] relates to Enterococcus faecalis W61950.
Test [29] relates to Mannheimia haemolytica Serovar 2.
Test [30] concerns Salmonella enterica subsp. arizonae.
For test [31], the system named is Mannheimia haemolytica Serovar 6.
Test [32] has as its system Mannheimia haemolytica Serovar 1.
Test [33] deals with Corynebacterium pseudotuberculosis ATCC 19410.
The subject of test [34] is Pseudomonas aeruginosa PAO1.
Test [35] relates to Salmonella typhimurium ATCC 50013.
The test system of test [36] is Xanthomonas arboricola pv. pruni CFBP 5563.
The test system of test [37] is Bacillus subtilis ATCC 23631.
For test [38], the system named is Pseudomonas syringae pv. syringae EPS 94.
For test [39], the system named is Xanthomonas campestris pv. Vesicatoria 2133-2.
Test [40] has as its system Erwinia amylovora PMV 6076.
Test [41] has as its system Pseudomonas aeruginosa ATCC 27553.
The subject of test [42] is Pseudomonas syringae pv. actinidiae Psa3700.1.1.
Test [43] deals with Shigella dysenteriae ATCC 51302.
Test [44] deals with Streptococcus pneumoniae ATCC 49619.
The subject of test [45] is Xanthomonas fragariae Xf349-9A.

The structures appear in SMILES notation. Values after ≈ are worked out from the molar mass of the structure shown.

As a reminder, the MIC is the lowest concentration that inhibits growth of the organism. Low readings indicate a more susceptible organism, high ones a less susceptible organism. As for `CC(C)[C@H](NC(=O)[C@H](CS)NC(=O)[C@@H](NC(=O)[C@H](CCCN=C(N)N)NC(=O)[C@H](CCCCN)NC(=O)CNC(=O)[C@H](CC(N)=O)NC(=O)[C@@H](N)CS)C(C)C)C(=O)N[C@@H](CS)C(N)=O` [CNGKRVCVC], the MIC in [1] is greater than 102 µM; in test [2], no less than 102 µM; in [3] it was no less than 102 µM; with Staphylococcus aureus, greater than 102 µM; in [4], greater than 102 µM; in [5], no less than 102 µM. The MIC was greater than 102 µM in [6], no less than 102 µM in [7], no less than 102 µM in [8] and no less than 102 µM in [9].

For the molecule `CC[C@H](C)[C@H](NC(=O)[C@H](CCCN=C(N)N)NC(=O)[C@@H](N)CCCCN)C(=O)N[C@@H](CCSC)C(=O)N[C@@H](CCCCN)C(=O)N[C@@H](CC(C)C)C(=O)N[C@@H](CCCCN)C(=O)N[C@@H](CCSC)C(=O)N[C@@H](CCCN=C(N)N)C(=O)O` [KRIMKLKMR], the MIC in the test on Pseudomonas aeruginosa 9 was no less than 226 µM; in [10] it was no less than 226 µM; in [11], no less than 226 µM; in test [12] it was no less than 226 µM; in test [13], greater than 226 µM; in test [14], no less than 226 µM. For the same molecule, the MIC in test [15], in test [16], in [17], in [18], in test [19] and in test [20] was no less than 226 µM throughout. For the same molecule, the MIC was no less than 226 µM in test [21]; greater than 226 µM in test [22]; no less than 226 µM in [23]; no less than 226 µM in test [24]; no less than 226 µM in test [25]; no less than 226 µM in [26]. Also, the MIC in test [27] and in [28] was no less than 226 µM each time.

With `CC[C@H](C)[C@H](NC(=O)[C@H](CCCN=C(N)N)NC(=O)[C@H](CCCN=C(N)N)NC(=O)[C@H](CC(C)C)NC(=O)[C@@H](N)CC(N)=O)C(=O)N[C@H](C(=O)N[C@@H](CCCN=C(N)N)C(=O)N[C@@H](CCCCN)C(=O)N[C@H](C(=O)N[C@H](C(=O)N[C@@H](Cc1cnc[nH]1)C(=O)N[C@H](C(=O)N[C@H](C(=O)N[C@@H](CCCCN)C(=O)N[C@@H](CCCCN)C(=O)N[C@@H](Cc1ccc(O)cc1)C(=O)O)[C@@H](C)CC)[C@@H](C)CC)[C@@H](C)CC)[C@@H](C)CC)[C@@H](C)CC` [NLRRIIRKIIHIIKKY], the MIC in test [29] came to 2.41 µM (≈ 5 µg/mL); in the test on Aspergillus fumigatus, 6.4 µM (≈ 13.3 µg/mL); in [30], 2.41 µM (≈ 5 µg/mL); in the test on Pasteurella multocida, 1.01 µM (≈ 2.1 µg/mL); in test [31] it was 1.2 µM (≈ 2.5 µg/mL); in [32], 0.626 µM (≈ 1.3 µg/mL). For the same molecule, the MIC was determined as 4.81 µM (≈ 10 µg/mL) in the test on Staphylococcus aureus; 9.63 µM (≈ 20 µg/mL) in test [33]; 1.01 µM (≈ 2.1 µg/mL) in the test with Bibersteinia trehalosi; 1.2 µM (≈ 2.5 µg/mL) in test [34]; 0.626 µM (≈ 1.3 µg/mL) against Klebsiella pneumoniae.

As for `CC[C@H](C)[C@H](NC(=O)[C@H](Cc1cnc[nH]1)NC(=O)[C@@H](NC(=O)[C@@H](NC(=O)[C@H](CCCCN)NC(=O)[C@H](CCCN=C(N)N)NC(=O)[C@@H](NC(=O)[C@@H](NC(=O)[C@H](CCCN=C(N)N)NC(=O)[C@@H](N)CCCN=C(N)N)[C@@H](C)CC)[C@@H](C)CC)[C@@H](C)CC)[C@@H](C)CC)C(=O)N[C@H](C(=O)N[C@@H](CCCCN)C(N)=O)[C@@H](C)CC` [RRIIRKIIHIIK], the MIC in test [29] is 6.67 µM (≈ 10.4 µg/mL); against Aspergillus fumigatus, 17.1 µM (≈ 26.7 µg/mL); in test [30] it was 12.8 µM (≈ 20 µg/mL); with Pasteurella multocida it was 12.8 µM (≈ 20 µg/mL); in [31], 4.3 µM (≈ 6.7 µg/mL); in test [32] it was 12.8 µM (≈ 20 µg/mL). In addition, the MIC in the test with Staphylococcus aureus was greater than 12.8 µM; in test [33] it was 12.8 µM (≈ 20 µg/mL); against Bibersteinia trehalosi it was 12.8 µM (≈ 20 µg/mL); in test [34] it was 1.09 µM (≈ 1.7 µg/mL); in the test with Klebsiella pneumoniae it was greater than 12.8 µM.

Take `CC(C)C[C@H](NC(=O)CNC(=O)[C@H](CC(C)C)NC(=O)[C@H](Cc1ccccc1)NC(=O)[C@@H](NC(=O)[C@@H](N)CCCCN)C(C)C)C(=O)N[C@@H](CCCCN)C(=O)O` [KVFLGLK]: the MIC was no less than 59.7 µM in test [35]; no less than 50 µM in test [36]; 29.8 µM (≈ 24 µg/mL) in test [37]; no less than 50 µM in test [38]; no less than 50 µM in [39]; no less than 50 µM in test [40]. Besides, the minimum inhibitory concentration (MIC) was 49.7 µM (≈ 40 µg/mL) in test [22]; no less than 79.6 µM in test [41]; no less than 50 µM in test [42]; no less than 59.7 µM in test [43]; no less than 69.6 µM in [44]; no less than 50 µM in [45].
